{"source": "ChEMBL document CHEMBL3616463", "about": "“Differential influence of 7 cations on 16 non-competitive NMDA receptor blockers” (Bioorg Med Chem Lett, 2015)"}
{"target": "Glutamate NMDA receptor", "format": "cell membranes, Rattus norvegicus, Wistar, Brain, Membrane", "units": {"IC50": "µM"}, "description": "Displacement of [3H]MK-801 from NMDA receptor in Wistar rat brain membranes by scintillation counting analysis"}
{"molecule": "NCCCCCCCCc1ccc(CCCCN)s1", "IC50": 0.43}
{"molecule": "NCCOC(c1ccccc1)c1ccccc1", "IC50": 5.48}
{"molecule": "N=C(N)c1ccc(N2CCCN(c3ccc(C(=N)N)cc3)CC2)cc1", "IC50": 0.35}
{"molecule": "C[C@@H](CN)C(c1cccc(F)c1)c1cccc(F)c1", "IC50": 0.11}
{"molecule": "NCCCC12CCC(c3ccccc31)c1ccccc12", "IC50": 7.44}
{"molecule": "C[C@](N)(Cc1ccccc1)c1ccccc1", "IC50": 0.78}
{"molecule": "CN[C@@]1(c2ccccc2Cl)CCCCC1=O", "IC50": 2.12}
{"molecule": "NCCCCCCCCCCCCN", "IC50": 8.39}
{"molecule": "NC(N)=NCCCCN=C(N)N", "note": "[ARCAINE]", "IC50": 6.39}
{"molecule": "CN(C)CCCN1c2ccccc2Sc2ccc(Cl)cc21", "note": "[CHLORPROMAZINE]", "IC50": 21}
{"molecule": "CN[C@]1(c2ccccc2Cl)CCCCC1=O", "note": "[ESKETAMINE]", "IC50": 0.64}
{"molecule": "NCCCN1c2ccccc2Sc2ccc(Cl)cc21", "note": "[NOR2-CHLORPROMAZINE]", "IC50": 5.79}
{"molecule": "c1ccc(C2(N3CCCCC3)CCCCC2)cc1", "note": "[PHENCYCLIDINE]", "IC50": 0.11}
{"molecule": "COC(=O)[C@@H](N)Cc1c[nH]c2ccccc12", "note": "[TRYPTOPHAN METHYL ESTER]", "IC50": 169}
